Values quoted from earlier work in patent publication US11825820B2, “Poly-glutamine androgen receptor knock-in mouse models, reagents and methods” (priority 2017, dated 2023).
Where two headings read alike, the source gives them in different places.

Key:
[1] = tested on: patients with NASH/NAFLD scores of 3 to 8
NASH = conditions: 30 mg/day
[2] = 100 mg, 250 mg vs Pioglitazone 45 mg; 28 days
[3] = tested on: patients with nonalcoholic steatohepatitis; conditions: 24 weeks

In the case of CSc1ccc(C(=O)/C=C/c2cc(C)c(OC(C)(C)C(=O)O)c(C)c2)cc1 [Elafibranor], the anti-inflammatory effects ([1]; Phase IIb claims) is listed as “Anti-inflammatory effects”, the “insulin sensitivity and glucose homeostasis” value ([1]; Phase IIb claims) is listed as “Improved insulin sensitivity and glucose homeostasis” and the “markers of hepatic dysfunction, including liver enzymes ALT, AST, GGT, ALP” value ([1]; Phase IIb claims) is listed as “Improvement in markers of hepatic dysfunction”. For the same molecule, the “plasma lipids (triglyceride, LDL-C, HDL-C)” value ([1]; Phase IIb claims) was “reduction in triglyceride and LDL-C and increased HDL-C levels”, the “RR, Elafibranor vs placebo” value ([1]; Phase IIb, after withdrawal of NAS <4 patients) was 1.9 and the “positive result, Elafibranor vs placebo” value ([1]; Phase IIb, after withdrawal of NAS <4 patients, placebo 12.7%, p=0.046) was 22.4%. The safety profile ([1]; clinical trials, toxicology studies up to two-year carcinogenicity) was “good safety profile with no unwanted side effects”, the “statistical significance of results across the entire study population” value ([1]; entire study population incl. NAS <4 patients) was “prevented Elafibranor from having statistically significant results” and the “histological parameters NASH (steatosis, inflammation, fibrosis)” value (animal models of NASH) was “Beneficial effects on histological parameters NASH”.

In the case of CCc1ccc(CCOc2ccc(CC3SC(=O)NC3=O)cc2)nc1 (stereo not drawn) [Pioglitazone], the side effects (NASH) is given as “weight gain, edema, bone fractures and increased risk of bladder cancer”.

In the case of COc1cccc(C(=O)COc2ccc(CC3SC(=O)[N-]C3=O)cc2)c1.[K+] (stereo not drawn) [MSCD-0602K], the “adiponectin levels vs Pioglitazone” value [2] is listed as “equivalent to Pioglitazone” and the “overall glucose control vs Pioglitazone” value [2] is listed as “equivalent to Pioglitazone”.

In the case of Cc1cc(F)c(C(=O)Nc2cccc(-c3nncn3C(C)C)n2)cc1-n1cnc(C2CC2)c1 [selonsertib], the “proportion of patients with a one or more stage reduction in fibrosis” value ([3]; 6-mg selonsertib group, 8 of 27, 95% CI 14-50) is given as 30% and the “proportion of patients with a one or more stage reduction in fibrosis” value ([3]; 18-mg selonsertib group, 13 of 30, 95% CI 26-63) is given as 43%.

B1: simtuzumab (antibody, chains of the INN, looked up, V domains shown)
VH: QVQLVQSGAEVKKPGASVKVSCKASGYAFTYYLIEWVRQAPGQGLEWIGVINPGSGGTNYNEKFKGRATITADKSTSTAYMELSSLRSEDTAVYFCARNWMNFDYWGQGTTVTVSS
VL: DIVMTQTPLSLSVTPGQPASISCRSSKSLLHSNGNTYLYWFLQKPGQSPQFLIYRMSNLASGVPDRFSGSGSGTDFTLKISRVEAEDVGVYYCMQHLEYPYTFGGGTKVEIK
notes: comparator group (simtuzumab-alone) in the selonsertib Phase 2 study
In the case of B1, the “proportion of patients with a one or more stage reduction in fibrosis” value ([3]; simtuzumab-alone group, 2 of 10, 95% CI 3-56) is listed as 20%.
